No end group written: not given here.
How the values were obtained:
[1] = test system: RAW 264.7 (murine macrophage-like ATCC TIB-71); type: cell-based
Procedure: (§1) The toxic effect was evaluated indirectly using the colorimetric MTT assay (3-[4,5-dimethylthiazol-2-yl]-2,5-diphenyl tetrazolium bromide, Thermo Fisher Scientific Inc, Massachusetts, USA) on A549 (human lung adenocarcinoma, ATCC CCL-185) and RAW 264.7 (murine macrophage-like ATCC TIB-71) cell lines. Cell lines were kindly provided by Instituto de Virología e Innovaciones Tecnológicas (IVIT), (INTA-CONICET, Buenos Aires, Argentina).
(§2) For the assay, A549 cells were seeded in 96-well plates at a density of 1 × 10^4 cells per well, while RAW 264.7 cells were seeded at a density of 5 × 10^4 cells per well. The plates were incubated for 24 h at 37 °C with 5% CO^2 to allow cell adhesion. The peptide P6.2 was dissolved in distilled water at a stock concentration of 10.24 mg/mL, and serial dilutions were made in RPMI-1640 medium supplemented with 10% fetal bovine serum (FBS, Internegocios S.A., Mercedes, Argentina). The concentrations used to assess P6.2 toxicity were the same as those previously employed in bacterial studies to determine the minimum inhibitory concentration (MIC) in antimicrobial activity assays. For the A549 cell line, P6.2 concentrations ranged from 4 µg/mL to 1024 µg/mL using serial dilutions in culture medium. For the RAW 264.7 cells, P6.2 concentrations ranged from 256 µg/mL to 8 µg/mL, with the concentration range adjusted based on preliminary results obtained from the A549 cell line.
(§3) Peptides were added and plates were incubated for 24 h at 37 °C in a 5% CO2 atmosphere. After incubation, the culture medium was removed, and the cells were washed with PBS (Phosphate Buffered Saline pH 7.2) to remove any remnants of the treatments. Next, 100 µL of MTT solution (0.5 mg/mL in PBS) was added to each well, and the plates were incubated for 0.5 to 3 h at 37 °C. During this period, viable cells reduced MTT, forming visible formazan crystals under a light field microscope (Zeiss Primovent, Oberkochen, Germany), indicating the cell metabolism of the compound.
(§4) At the end of the incubation, the supernatant was removed, and 200 µL of DMSO was added to each well to dissolve the formazan crystals. The plates were shaken to homogenize the contents, and absorbance was measured at 570 nm using a microplate reader (RT2100, Rayto Life and Analytical Sciences Co., Ltd, Shenzhen, China). Triplicates were run for each treatment. Cell viability was calculated by setting the absorbance value obtained for untreated control cells as 100% viability.

[2] = test system: A549 (human lung adenocarcinoma, ATCC CCL-185); type: cell-based
Procedure: as §1, §2, §3, §4

[3] = test system: P. aeruginosa M13513; experiment: Inhibition of biofilm formation (crystal violet); type: cell-based, Pseudomonas aeruginosa; conditions: sub-MIC concentrations (1/8 to 1/2 of the MIC), 24 h
Procedure: The assessment of biofilm inhibition was carried out using 96-well flat-bottom polystyrene plates. Antimicrobial agents were diluted in Mueller–Hinton broth through a two-fold serial dilution and subsequently inoculated with a fresh bacterial culture to obtain a final concentration of 5 × 10^5 CFU/mL, with a total well volume of 100 µL. The plates were then incubated at 37 °C for 24 h. Bacteria cultured without the peptide served as the control. To evaluate biofilm formation following peptide exposure, the supernatant was carefully removed, and the wells were washed twice with 100 µL of saline solution to eliminate any non-adherent cells. The remaining biofilm was fixed by adding 100 µL of methanol for 15 min, followed by staining with 100 µL of 1% (v/v) crystal violet ( Sigma-Aldrich, Massachusetts, USA) for 5 min. After staining, the excess dye was discarded, and the wells were rinsed twice with 200 µL of distilled water before allowing the plate to dry at 37 °C for 30 min. Finally, 100 µL of 33% acetic acid was added to each well, and the samples were homogenized by gentle agitation. The absorbance was then measured at 595 nm using a microplate reader (RT2100, Rayto Life and Analytical Sciences Co., Ltd., Shenzhen, China).

[4] = test system: Pseudomonas aeruginosa M13513; experiment: MIC by broth microdilution (CLSI); type: cell-based; conditions: CAMHB, two consecutive values shown where replicates varied by one dilution
Description: Pseudomonas aeruginosa M13513 is a clinical isolate carrying the carbapenemase KPC-2 (blaKPC-2 gene). This strain was generously supplied by the Servicio Antimicrobianos, Instituto Nacional de Enfermedades Infecciosas (INEI)-ANLIS “Dr. Carlos G. Malbrán” in Buenos Aires, Argentina.
For antimicrobial testing, bacterial cultures were maintained in Cation-Adjusted Mueller–Hinton Broth (CAMHB), following Clinical and Laboratory Standards Institute (CLSI) guidelines.
The minimal inhibitory concentration was assessed using a standard microdilution assay, following CLSI guidelines. Mueller–Hinton Broth (Laboratorios Britania S.A., Buenos Aires, Argentina) supplemented with Ca^2+ (20–25 mg/L) and Mg^2+ (10–12.5 mg/L) was used for the assay. The bacterial strains tested included Pseudomonas aeruginosa PAO1, Pseudomonas aeruginosa M13513, and Staphylococcus aureus ATCC® 25923.

[5] = test system: P. aeruginosa M13513
Procedure: To analyze the stability of the molecule, the peptide was exposed to different temperatures for varying durations. The conditions tested involved incubation at 37 °C for 24 h, at 60 °C for 2 h, and at 100 °C for 15 min. Each condition was set up in a microtube with the peptide dissolved in sterile deionized water. As a control, the peptide was dissolved immediately before testing without temperature incubation. Afterward, the broth microdilution assay was conducted to assess its antimicrobial effectiveness. Additionally, the stability of the peptide in serum was examined. Three microtubes were prepared, each containing sterile deionized water with FCBS (fetal calf bovine serum) 25% (v/v) and the antimicrobial peptide. Two of these samples were incubated at 37 °C for 24 h or 2 h, while the third sample was prepared just before testing without any temperature incubation. As controls, serum alone and peptide without serum were used. The antimicrobial activity was subsequently evaluated through the broth microdilution assay. In order to assess the stability of the AMP, P6.2 was incubated at different temperature conditions or with FBS (fetal bovine serum) for different time periods. The temperature exposures were overnight (ON) at 37 °C, 120 min at 60 °C, and 15 min at 100 °C. […]

[6] = test system: human erythrocytes; conditions: cited from earlier work
Procedure: Peptide 6.2 (P6.2) is a de novo designed antimicrobial peptide, with an amphipathic alfa helical structure. […] These findings are also in accordance with the previous results obtained for toxicity by hemolytic activity (hemolysis below 5% until 128 µg/mL).

With GLLRKWGKKWKEFLRRVWK-NH2 [Peptide P6.2] the LogCC50 [1] was 2.188, the “CC50 (cytotoxic concentration 50%)” value ([1]; 24 h) was 154.1 µg/mL and the LogCC50 [2] was 2.100. The “CC50 (cytotoxic concentration 50%)” value ([2]; 24 h) was 125.8 µg/mL, the biofilm inhibitory activity [3] was “did not show anti-biofilm activity” and the MIC [4] was 32/64. The “reduction of antimicrobial activity after serum incubation” value [5] was “two-fold dilution” and the erythrocytes lysis [6] was “less than 10%”.

Source: paper PMC11940343, “In Vitro and In Vivo Evaluation of the De Novo Designed Antimicrobial Peptide P6.2 Against a KPC-Producing P. aeruginosa Clinical Isolate” (Biomolecules, 2025)
